Test results published in ChEMBL document CHEMBL5335866, “Structure-Based Optimization of Selective and Brain Penetrant CK1δ Inhibitors for the Treatment of Circadian Disruptions” (ACS Med Chem Lett, 2024).
Active and inactive are the calls of the source. No cut-off for these calls is given here.

How the values were obtained:
[1] = Unbound drug concentration in plasma of C57BL/6 mouse at 30 mg/kg, sc measured for 6 hrs by LC/MS-MS analysis; format: ADME, organism-based; settings: in vivo
[2] = Intrinsic clearance in cynomolgus monkey liver microsomes at 1 uM preincubated for 5 mins followed by NADPH addition measured for 60 mins by LC-MS/MS analysis; format: ADME, Macaca fascicularis, Microsome; settings: time 65 min, read-out: CLH
[3] = Unbound drug concentration in brain of C57BL/6 mouse at 30 mg/kg, sc measured for 6 hrs by LC/MS-MS analysis; format: ADME, organism-based; settings: in vivo
[4] = Volume of distribution at steady state in Sprague-Dawley rat at 1 mg/kg, iv measured for 24 hrs by LC-MS/MS analysis; format: ADME, organism-based; settings: in vivo, read-out: Vdss
[5] = Oral bioavailability in C57BL/6 mouse at 30 mg/kg measured for 6 hrs by LC/MS-MS analysis; format: ADME, organism-based; settings: in vivo
[6] = biological target: Casein kinase I isoform alpha (Homo sapiens, UniProt P48729); assay: Inhibition of CK1 alpha (unknown origin)
Chain of Casein kinase I isoform alpha (P48729 whole entry, canonical isoform): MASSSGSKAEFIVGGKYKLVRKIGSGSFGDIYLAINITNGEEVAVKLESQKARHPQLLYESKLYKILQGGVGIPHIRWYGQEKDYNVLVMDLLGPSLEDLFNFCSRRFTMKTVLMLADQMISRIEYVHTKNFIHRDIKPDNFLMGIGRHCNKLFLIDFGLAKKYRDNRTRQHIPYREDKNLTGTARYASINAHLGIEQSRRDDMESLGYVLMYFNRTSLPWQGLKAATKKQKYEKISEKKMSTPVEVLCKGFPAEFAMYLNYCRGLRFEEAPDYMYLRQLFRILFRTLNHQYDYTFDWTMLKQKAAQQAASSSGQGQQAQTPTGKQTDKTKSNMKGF

[7] = biological target: TRAF2 and NCK-interacting protein kinase (Homo sapiens, UniProt Q9UKE5); assay: Inhibition of TNIK (unknown origin)
[8] = Effect on circadian rhythms in C57BL/6 mouse assessed as phase delay in time at 30 mg/kg, sc qd for 10 days by wheel running assay; format: functional; settings: time 10 day
[9] = Cmax in Sprague-Dawley rat at 5 mg/kg, po measured for 24 hrs by LC-MS/MS analysis; format: ADME, organism-based; parameters: dose 5 mg/kg, time 24 hrs, route po; settings: in vivo
[10] = Intrinsic clearance in mouse liver microsomes at 1 uM preincubated for 5 mins followed by NADPH addition measured for 60 mins by LC-MS/MS analysis; format: ADME, Microsome; settings: time 65 min, read-out: CLH
[11] = Intrinsic clearance in rat liver microsomes at 1 uM preincubated for 5 mins followed by NADPH addition measured for 60 mins by LC-MS/MS analysis; format: ADME, Microsome; settings: time 65 min, read-out: CLH
[12] = Cmax in brain of C57BL/6 mouse at 30 mg/kg, sc measured for 6 hrs by LC/MS-MS analysis; format: ADME, organism-based; parameters: time 6 hrs, dose 30 mg/kg, route sc
Cytochrome P450 2D6 = Cytochrome P450 2D6 (Homo sapiens, UniProt P10635); assay: Inhibition of CYP2D6 in human liver microsomes incubated for 10 mins in presence of NADPH by LC-MS/MS analysis; format: ADME, Microsome
Chain of Cytochrome P450 2D6 (P10635 whole entry): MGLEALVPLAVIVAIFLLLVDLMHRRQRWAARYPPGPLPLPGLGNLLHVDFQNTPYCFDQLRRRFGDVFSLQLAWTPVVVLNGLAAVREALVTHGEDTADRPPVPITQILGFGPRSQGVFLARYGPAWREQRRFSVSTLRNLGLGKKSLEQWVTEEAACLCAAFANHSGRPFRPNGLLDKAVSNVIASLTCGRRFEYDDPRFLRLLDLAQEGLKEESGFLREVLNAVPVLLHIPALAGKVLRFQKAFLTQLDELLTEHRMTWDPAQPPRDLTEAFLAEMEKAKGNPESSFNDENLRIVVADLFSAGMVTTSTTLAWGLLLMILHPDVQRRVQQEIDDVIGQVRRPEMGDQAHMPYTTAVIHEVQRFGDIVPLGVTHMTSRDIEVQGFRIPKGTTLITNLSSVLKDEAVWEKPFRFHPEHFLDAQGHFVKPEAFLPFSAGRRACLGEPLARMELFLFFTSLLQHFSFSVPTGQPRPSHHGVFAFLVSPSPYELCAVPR

[13] = Cmax in plasma of C57BL/6 mouse at 30 mg/kg, sc measured for 6 hrs by LC/MS-MS analysis; format: ADME, organism-based; parameters: time 6 hrs, dose 30 mg/kg, route sc
[14] = Cmax in brain of C57BL/6 mouse at 30 mg/kg, sc measured after 30 mins by LC/MS-MS analysis; format: ADME, organism-based; parameters: time 30 min, dose 30 mg/kg, route sc
[15] = biological target: Casein kinase I isoform epsilon (Homo sapiens, UniProt P49674); assay: Inhibition of CK1 epsilon (unknown origin)
Chain of Casein kinase I isoform epsilon (P49674 whole entry, canonical isoform): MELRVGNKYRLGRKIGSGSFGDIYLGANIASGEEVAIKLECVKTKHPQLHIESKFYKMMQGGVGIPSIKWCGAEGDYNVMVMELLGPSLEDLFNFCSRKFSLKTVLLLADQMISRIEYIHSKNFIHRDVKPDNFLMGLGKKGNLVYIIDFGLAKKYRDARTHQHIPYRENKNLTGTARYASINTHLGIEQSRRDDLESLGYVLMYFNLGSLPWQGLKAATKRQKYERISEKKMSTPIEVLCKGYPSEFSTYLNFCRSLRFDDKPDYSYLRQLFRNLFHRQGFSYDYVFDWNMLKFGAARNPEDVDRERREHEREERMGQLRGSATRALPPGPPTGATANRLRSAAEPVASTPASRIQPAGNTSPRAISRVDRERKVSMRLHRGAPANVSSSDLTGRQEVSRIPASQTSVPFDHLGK

[16] = Clearance in Sprague-Dawley rat at 1 mg/kg, iv measured for 24 hrs by LC-MS/MS analysis; format: ADME, organism-based; settings: in vivo
Cytochrome P450 1A2 = Cytochrome P450 1A2 (Homo sapiens, UniProt P05177); assay: Inhibition of CYP1A2 in human liver microsomes incubated for 10 mins in presence of NADPH by LC-MS/MS analysis; format: ADME, Microsome
Chain of Cytochrome P450 1A2 (P05177 whole entry): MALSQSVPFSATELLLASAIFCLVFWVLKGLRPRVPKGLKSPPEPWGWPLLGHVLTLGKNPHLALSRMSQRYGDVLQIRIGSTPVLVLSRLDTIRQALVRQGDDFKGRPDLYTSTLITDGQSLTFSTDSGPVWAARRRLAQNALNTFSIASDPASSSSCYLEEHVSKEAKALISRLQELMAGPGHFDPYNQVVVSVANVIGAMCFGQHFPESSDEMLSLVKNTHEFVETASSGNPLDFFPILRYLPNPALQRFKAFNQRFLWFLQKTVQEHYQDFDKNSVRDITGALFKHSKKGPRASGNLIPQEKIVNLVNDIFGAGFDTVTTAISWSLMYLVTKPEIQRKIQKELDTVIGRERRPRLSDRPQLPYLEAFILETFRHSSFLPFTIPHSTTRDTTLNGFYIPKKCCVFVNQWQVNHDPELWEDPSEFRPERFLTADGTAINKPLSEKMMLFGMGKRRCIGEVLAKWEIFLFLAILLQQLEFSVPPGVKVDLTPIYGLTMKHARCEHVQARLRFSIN

[17] = Half life in Sprague-Dawley rat at 5 mg/kg, po measured for 24 hrs by LC-MS/MS analysis; format: ADME, organism-based; settings: in vivo
[18] = Cmax in C57BL/6 mouse at 5 mg/kg, po measured for 6 hrs by LC/MS-MS analysis; format: ADME, organism-based; parameters: dose 5 mg/kg, time 6 hrs, route po; settings: in vivo
Cytochrome P450 3A4 = Cytochrome P450 3A4 (Homo sapiens, UniProt P08684); assay: Inhibition of CYP3A4 in human liver microsomes using midazolam as substrate incubated for 5 mins in presence of NADPH by LC-MS/MS analysis; format: ADME, Microsome
Chain of Cytochrome P450 3A4 (P08684 whole entry): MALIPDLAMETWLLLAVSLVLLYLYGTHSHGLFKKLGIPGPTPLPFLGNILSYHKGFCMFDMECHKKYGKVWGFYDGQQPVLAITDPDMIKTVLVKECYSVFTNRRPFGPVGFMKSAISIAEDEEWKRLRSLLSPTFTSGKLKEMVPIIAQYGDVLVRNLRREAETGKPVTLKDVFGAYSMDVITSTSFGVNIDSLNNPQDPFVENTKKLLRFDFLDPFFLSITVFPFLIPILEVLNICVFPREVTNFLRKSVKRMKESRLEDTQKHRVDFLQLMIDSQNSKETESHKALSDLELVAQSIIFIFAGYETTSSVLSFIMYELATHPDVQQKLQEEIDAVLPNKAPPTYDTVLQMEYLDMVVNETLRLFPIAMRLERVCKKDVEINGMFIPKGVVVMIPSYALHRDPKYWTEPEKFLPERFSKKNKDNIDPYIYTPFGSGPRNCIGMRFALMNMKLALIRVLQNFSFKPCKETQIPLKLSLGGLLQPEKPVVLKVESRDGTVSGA

[19] = Unbound Cmax in Sprague-Dawley rat at 5 mg/kg, po measured for 24 hrs by LC-MS/MS analysis; format: ADME, organism-based; settings: in vivo
Mus musculus [20] = assay: Effect on circadian rhythms in C57BL/6 mouse assessed as phase shift at 30 mg/kg, sc qd measured after 4 to 10 days by wheel running assay; format: functional, organism-based; settings: time 4-10 day
[21] = Intrinsic clearance in dog liver microsomes at 1 uM preincubated for 5 mins followed by NADPH addition measured for 60 mins by LC-MS/MS analysis; format: ADME, Canis lupus familiaris, Microsome; settings: time 65 min, read-out: CLH
Cytochrome P450 2C8 = Cytochrome P450 2C8 (Homo sapiens, UniProt P10632); assay: Inhibition of CYP2C8 in human liver microsomes incubated for 10 mins in presence of NADPH by LC-MS/MS analysis; format: ADME, Microsome
Chain of Cytochrome P450 2C8 (P10632 whole entry): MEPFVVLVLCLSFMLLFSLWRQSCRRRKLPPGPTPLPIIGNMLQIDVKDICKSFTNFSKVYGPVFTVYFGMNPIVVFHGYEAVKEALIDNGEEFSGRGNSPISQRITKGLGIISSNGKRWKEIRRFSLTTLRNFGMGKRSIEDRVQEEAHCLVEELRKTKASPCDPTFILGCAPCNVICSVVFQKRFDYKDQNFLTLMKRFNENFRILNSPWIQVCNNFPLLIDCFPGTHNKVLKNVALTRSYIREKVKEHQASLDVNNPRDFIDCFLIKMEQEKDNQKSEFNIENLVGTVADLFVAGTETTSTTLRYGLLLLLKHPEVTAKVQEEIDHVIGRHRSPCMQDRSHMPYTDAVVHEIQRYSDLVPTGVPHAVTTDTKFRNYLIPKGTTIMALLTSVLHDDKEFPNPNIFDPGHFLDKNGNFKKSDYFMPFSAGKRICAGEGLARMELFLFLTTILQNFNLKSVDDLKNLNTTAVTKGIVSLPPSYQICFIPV

Mus musculus [22] = assay: Effect on circadian rhythms in C57BL/6 mouse assessed as phase shift at 10 to 30 mg/kg, sc qd measured after 1 to 10 days by wheel running assay; format: functional, organism-based; settings: dose 10-30 mg/kg, time 1-10 day, tested as the 2H-labelled form
Cytochrome P450 2C9 = Cytochrome P450 2C9 (Homo sapiens, UniProt P11712); assay: Inhibition of CYP2C9 in human liver microsomes incubated for 10 mins in presence of NADPH by LC-MS/MS analysis; format: ADME, Microsome
Chain of Cytochrome P450 2C9 (P11712 whole entry): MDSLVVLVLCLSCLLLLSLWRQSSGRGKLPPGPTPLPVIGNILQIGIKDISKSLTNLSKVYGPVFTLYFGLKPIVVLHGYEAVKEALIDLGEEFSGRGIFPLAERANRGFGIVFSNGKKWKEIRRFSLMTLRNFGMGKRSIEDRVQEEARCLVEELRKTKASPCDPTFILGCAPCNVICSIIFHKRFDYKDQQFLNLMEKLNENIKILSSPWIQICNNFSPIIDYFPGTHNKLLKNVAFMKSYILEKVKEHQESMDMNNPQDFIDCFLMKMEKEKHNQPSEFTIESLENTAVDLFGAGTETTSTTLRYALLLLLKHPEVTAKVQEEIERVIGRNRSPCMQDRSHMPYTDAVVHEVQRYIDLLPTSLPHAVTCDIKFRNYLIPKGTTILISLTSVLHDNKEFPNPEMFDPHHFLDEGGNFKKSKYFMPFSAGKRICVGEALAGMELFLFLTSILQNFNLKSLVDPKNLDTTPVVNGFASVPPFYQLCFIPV

Brain = assay: Ex vivo receptor occupancy at CK1 delta in brain of C57BL/6 mouse at 30 mg/kg, sc measured for 6 hrs by autoradiography relative to control; format: functional
[23] = Oral bioavailability in Sprague-Dawley rat at 5 mg/kg measured for 24 hrs by LC-MS/MS analysis; format: ADME, organism-based; settings: in vivo
[24] = Apparent permeability across apical to basal side in MDCK cells expressing MDR1 at 5 uM incubated for 60 mins by LC/MS/MS analysis; format: ADME, cell-based, Canis lupus familiaris, MDCK1; settings: dog
Cytochrome P450 2C19 = Cytochrome P450 2C19 (Homo sapiens, UniProt P33261); assay: Inhibition of CYP2C19 in human liver microsomes incubated for 10 mins in presence of NADPH by LC-MS/MS analysis; format: ADME, Microsome
Chain of Cytochrome P450 2C19 (P33261 whole entry): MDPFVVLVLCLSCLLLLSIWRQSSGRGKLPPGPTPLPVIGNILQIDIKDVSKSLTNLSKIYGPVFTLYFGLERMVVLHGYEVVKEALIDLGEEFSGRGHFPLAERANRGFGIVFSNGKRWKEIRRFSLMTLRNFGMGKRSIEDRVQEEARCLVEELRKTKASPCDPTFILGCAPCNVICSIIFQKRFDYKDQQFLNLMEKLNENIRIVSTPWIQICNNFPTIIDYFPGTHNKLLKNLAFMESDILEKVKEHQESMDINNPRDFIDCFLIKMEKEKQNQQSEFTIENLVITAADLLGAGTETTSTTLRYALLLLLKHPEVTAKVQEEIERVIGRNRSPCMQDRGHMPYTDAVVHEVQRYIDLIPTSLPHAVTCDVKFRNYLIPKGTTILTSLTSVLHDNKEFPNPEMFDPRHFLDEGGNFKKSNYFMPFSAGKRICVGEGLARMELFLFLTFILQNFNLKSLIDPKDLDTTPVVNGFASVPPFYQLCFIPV

[25] = Ratio of unbound fraction in brain to plasma of C57BL/6 mouse at 30 mg/kg, sc measured for 6 hrs by LC/MS-MS analysis; format: ADME, organism-based; settings: read-out: K(p,uu,brain)
[26] = Cmax in plasma of C57BL/6 mouse at 30 mg/kg, sc measured after 30 mins by LC/MS-MS analysis; format: ADME, organism-based; parameters: time 30 min, dose 30 mg/kg, route sc
[27] = AUC (infinity) in Sprague-Dawley rat at 5 mg/kg, po measured for 24 hrs by LC-MS/MS analysis; format: ADME, organism-based; parameters: time 24 hrs, dose 5 mg/kg, route po; settings: in vivo
[28] = Oral bioavailability in C57BL/6 mouse at 5 mg/kg measured for 6 hrs by LC/MS-MS analysis; format: ADME, organism-based; settings: in vivo
[29] = Intrinsic clearance in human liver microsomes at 1 uM preincubated for 5 mins followed by NADPH addition measured for 60 mins by LC-MS/MS analysis; format: ADME, Microsome; settings: time 65 min, read-out: CLH
[30] = Cmax in brain of C57BL/6 mouse at 30 mg/kg, sc measured after 15 mins by LC/MS-MS analysis; format: ADME, organism-based; parameters: time 15 min, dose 30 mg/kg, route sc
[31] = Cmax in plasma of C57BL/6 mouse at 30 mg/kg, sc measured after 15 mins by LC/MS-MS analysis; format: ADME, organism-based; parameters: dose 30 mg/kg, time 15 min, route sc

Cp(f) [1] [nM]	microsomal CLint at 1 µM [2] [µL/min/mg]	Drug uptake(free) [3] [nM]	Vd [4] [L/kg]	IC50 [6] [µM]	Cmax [9] [nM]	microsomal CLint at 1 µM [10] [µL/min/mg]	microsomal CLint at 1 µM [11] [µL/min/mg]	Cmax [12] [ng/g]	IC50 (Cytochrome P450 2D6) [µM]	Cmax [13] [ng/mL]	IC50 [15] [µM]	clearance [16] [mL/min/kg]	IC50 (Cytochrome P450 1A2) [µM]	half-life [17] [min]	IC50 (Cytochrome P450 3A4) [µM]	fCmax [19] [µM]	microsomal CLint at 1 µM [21] [µL/min/mg]	IC50 (Cytochrome P450 2C8) [µM]	SMILES	Time [8] [h]	also measured
2899	12.3	668	1.2	0.79	400	22.7	17.2	847	> 20	4110	0.093	104	> 20	60	> 20	0.15	< 7.7	> 20	CC1(C)Cn2nc(-c3ccc(F)cn3)c(-c3ccnc4[nH]ncc34)c2CO1	0.83	bioavailability [5]: 53%; IC50 [7]: 3.2 µM; Cmax [14]: 2300 nM; Cmax [18]: 700 nM; Activity (Mus musculus [20]): Active; Activity (Mus musculus [22]): Active; IC50 (Cytochrome P450 2C9): > 20 µM; Occ (Brain): 56%; bioavailability [23]: 19%; Papp A→B at 1 h, 5 µM [24]: 7.4 ×10⁻⁶ cm/s; IC50 (Cytochrome P450 2C19): > 20 µM; Kp uu at 6 h [25]: 0.23; Cmax [26]: 11300 nM; AUC(0-inf) [27]: 150 ng·h/mL; bioavailability [28]: 4%
6117	< 7.7	789	1	0.41	3000	< 7.7	8.5	1350	> 20	8850	0.11	44	> 20	48	> 20	1.1	< 7.7	> 20	[2H]C([2H])([2H])C1(C([2H])([2H])[2H])Cn2nc(-c3ccc(F)cn3)c(-c3ccnc4[nH]ncc34)c2CO1	1.25	microsomal CLint at 1 µM [29]: < 7.7 µL/min/mg; Cmax [30]: 3700 nM; IC50 (Cytochrome P450 2C9): > 20 µM; Occ (Brain): 60%; bioavailability [23]: 85%; Papp A→B at 1 h, 5 µM [24]: 4.8 ×10⁻⁶ cm/s; IC50 (Cytochrome P450 2C19): > 20 µM; Kp uu at 6 h [25]: 0.13; Cmax [31]: 23900 nM; AUC(0-inf) [27]: 1940 ng·h/mL
